Assay results published in publication PMC11596563, “N-Aryl Benzimidazole and Benzotriazole Derivatives and Their Hybrids as Cytotoxic Agents: Design, Synthesis and Structure–Activity Relationship Studies” (Molecules, 2024).

Experiments:
A549 = assay: MTT test, cytotoxic effect; assay type: cell-based; conditions: Homo sapiens, 24 h treatment, 0.1 to 100 µM, concentration that causes 50% cell death
Description: (§1) At the first stage of biological testing, we studied the effect of the synthesized compounds on the survival of cells of both tumoral and normal origin. […] In our work, the cytotoxic profile of the synthesized molecules was assessed using the MTT test, based on the ability of a colorless tetrazolium salt (3-[4,5-dimethylthiazol-2-yl]-2,5-diphenyltetrazolium bromide, MTT) to be reduced to colored formazan in the presence of the mitochondrial enzymes of living cells. For this purpose, a number of cell lines of tumoral origin (SH-SY5Y, A549, MCF-7 and SW-480), as well as normal origin (Hek-293), were used.
(§2) For the experiments, we used tumor cell cultures SH-SY5Y, human neuroblast-like cells, A549, human lung adenocarcinoma, MCF-7, human mammary adenocarcinoma, SW-480 and human colorectal adenocarcinoma, as well as cells of normal origin obtained from human embryonic kidneys, Hek-293.
(§3) All cells were cultured in the Dulbecco Modified Eagle’s Medium (DMEM) with a high glucose content, 10% fetal bovine serum and 1% penicillin-streptomycin as an antibiotic, in a moist incubator with 5% CO2 at 37°C.
(§4) To measure cellular metabolic activity, a colorimetric analysis was performed using the MTT reagent (3-(4,5–dimethylthiazol-2-yl)-2,5-diphenyltetrazolium bromide), which is an inhibitor of viable cells [73, 74].
(§5) • Briefly, cells in the logarithmic growth phase were digested and resuspended to adjust the cell density. The cells were then seeded in 96-well plates at a density of 10,000 cells per well. After 24 h of the incubation of the cells under the standard conditions described above (for the purpose of cell adhesion), the cells were treated with the synthesized compounds at different concentrations (0.1 to 100 µM) or a vehicle alone as a control (1% DMSO) for 24 h. After the incubation time of the cells with synthesized compounds, 5 mg/mL of MTT was added to the cells and incubated for 2 h at 37 °C. Next, the supernatant was discarded; after that, the formazan crystals were dissolved in a DMSO and the absorbance of each well was measured at 570 nm using a multifunctional microplate reader, Cytation3 (Biotech Tools Inc., Winooski, USA).

MCF-7 = assay: MTT test, cytotoxic effect; assay type: cell-based; conditions: Homo sapiens, MCF7, 24 h treatment, 0.1 to 100 µM, concentration that causes 50% cell death
Description: as §1, §2, §3, §4, §5

SW-480 = assay: MTT test, cytotoxic effect; assay type: cell-based; conditions: Homo sapiens, SW480, 24 h treatment, 0.1 to 100 µM, concentration that causes 50% cell death
Description: as §1, §2, §3, §4, §5

[1] = MTT test, cytotoxic effect on cells of normal origin; assay type: cell-based, human; conditions: human, Hek-293 cells (normal origin), 24 h treatment, 0.1 to 100 µM, normal cells, concentration that causes 50% cell death
Description: as §1, §2, §3, §4, §5

[2] = system: all the tested cell lines (SH-SY5Y, A549, MCF-7, SW-480, Hek-293); assay: MTT test, summary over all tested cell lines; assay type: cell-based, human; conditions: MTT, range of concentrations studied (0.1 to 100 µM)
Description: as §1
(§6) For the experiments, we used tumor cell cultures SH-SY5Y, human neuroblast-like cells, A549, human lung adenocarcinoma, MCF-7, human mammary adenocarcinoma, SW-480 and human colorectal adenocarcinoma, as well as cells of normal origin obtained from human embryonic kidneys, Hek-293. The cell lines were obtained from the collection of the Institute of Cytology, Russian Academy of Sciences (St. Petersburg, Russia).
as §3, §4
(§7) • Briefly, cells in the logarithmic growth phase were digested and resuspended to adjust the cell density. The cells were then seeded in 96-well plates at a density of 10,000 cells per well. […] Next, the supernatant was discarded; after that, the formazan crystals were dissolved in a DMSO and the absorbance of each well was measured at 570 nm using a multifunctional microplate reader, Cytation3 (Biotech Tools Inc., Winooski, USA).

SH-SY5Y = assay: cells; conditions: Homo sapiens, 24 h, read-out: IC50 of the cytotoxic effect, SH-SY5Y
Description: as §1, §2, §3, §4, §5

[3] = MTT test, summary over all tested cell lines; assay type: cell-based, human; conditions: human; all cells, including those of normal origin, Hek-293; read-out: IC50 values of the cytotoxic effect, range over all cells
Description: as §1, §6, §3, §4, §7

[4] = system: Fe(II)-induced lipid peroxidation (LPO) of rat brain homogenate; assay: Fe(II)-induced lipid peroxidation, modified TBARS test; assay type: biochemical; conditions: Fe(II) 500 μM, rat brain homogenate 2 mg/mL; for IC50: 1 to 300 μM, read-out: IC50 of the lipid peroxidation inhibitory effect; for decrease in the level of malondialdehyde: compounds at 100 μM
Description: In our work, the antioxidant status of the compounds was determined by their ability to influence the process of Fe(II)-induced lipid peroxidation (LPO) of rat brain homogenate (2 mg/mL). The effect of the substances on LPO was studied using a modified version of the TBA test in a plate format. This test is based on the reaction of 2-thiobarbituric acid with intermediate LPO products, resulting in the formation of a colored trimethine complex, the main role in the formation of which belongs to malondialdehyde. […] This was expressed in a decrease in the level of malondialdehyde in the system by 70, 79 and 71%, respectively, tending to the values of the well-known antioxidant Trolox. Additionally, the IC50 values of the lipid peroxidation inhibitory effect were calculated for these molecules, the values of which are presented in Figure 2B.
To obtain rat brain homogenate, an animal previously anesthetized in a CO2 chamber was decapitated using a guillotine. The brain was homogenized in a buffer containing KCl (120 mM) and HEPES (20 mM), pH = 7.4 at 4 ° C and centrifuged at 1500 g to obtain a supernatant.
The intensity of the lipid peroxidation of the rat brain homogenate was evaluated using a modified TBARS test. […] In the wells of the negative control, the Fe(II) was replaced with water; in samples with a positive control, a solvent was introduced instead of the studied compounds.
At the end of incubation, a TBA reagent ([…] thiobartituric and 1% trichloroacetic acids dissolved in 0.25 N HCl) was added to each well and heated at 90 °C for 90 min.

A549 cells = assay: Wound-healing assay (scratch test); assay type: cell-based, human; conditions: 1 μM; for migration capacity, decrease in the scratch width vs control: 24 h after the damage
Source text: It is also well known that migration and proliferation of cancer cells are key processes involved in the metastatic cascade of malignant neoplasms. In turn, the ability of therapeutic agents to inhibit these processes is considered a promising property of antitumor agents. In this regard, in order to assess the possible antimetastatic potential of cytotoxic diphenylamines 6b, c and d, we analyzed the effect of the substances on the migration and proliferation of tumor cells A549 in a scratch test.
Based on a preliminary series of experiments, 1 μM was chosen as the concentration used in this test, excluding the intrinsic cytotoxic effect of the substances. […] Thus, the data obtained 24 h after the damage was applied allowed us to evaluate the migration capacity of the cells, minimizing the contribution of cell proliferation.
The migration activity of A549 cells was determined by the wound-healing assay (scratch test). To do this, cells (15,000 cells per well) were seeded in a 96-well plate and cultured under the standard conditions described above. After 24 h of incubation, when the cells became 90% confluent, the medium was selected and an identical scratch wound across the center of each well was made by a 200 µL pipette tip.
To remove detached cells, the cell monolayer was washed twice with PBS; after that, the growth media and test compounds at 1 µM (or 1% DMSO as a solvent) were added to each well. A phase contrast microscope at a ×40 magnification was used to take photomicrographs after making the wound and then 24 h, 48 h and 72 h later.
The analysis of the obtained images was calculated using the open-source program ImageJ [80] and a special module: Wound_healing_size_tool.

| melting point | IC50 [4] | Structure (SMILES) | IC50 (A549) | IC50 (MCF-7) | IC50 (SW-480) | IC50 at 24 h [1] | toxic effect on the tested cell lines [2] | IC50 (SH-SY5Y) | IC50 at 24 h [3] | decrease in the level of malondialdehyde [4] | migration capacity, decrease in the scratch width vs control (A549 cells) | unhealed defect area remaining from the original vs control (A549 cells; 48 and 72 h) | proliferation coefficient of cells vs control (A549 cells; A549) |
| --- | --- | --- | --- | --- | --- | --- | --- | --- | --- | --- | --- | --- | --- |
| 205 to 207 °C | – | Nc1cc(C(F)(F)F)ccc1Nc1cc(C(F)(F)F)ccc1-n1cnc2ccccc21 [6a, N-[2-(1H-benzimidazol-1-yl)-5-(trifluoromethyl)phenyl]-2-amino-4-(trifluoromethyl)aniline] | ≥ 100 µM | ≥ 100 µM | ≥ 100 µM | ≥ 100 µM | not toxic | ≥ 100 µM | – | – | – | – | – |
| 191 to 194 °C | 2.4 ± 0.05 µM | Nc1cc(C(F)(F)F)ccc1Nc1cc(Cl)ccc1-n1nnc2ccccc21 [6d, N-[2-(1H-benzotriazol-1-yl)-5-chlorophenyl]-2-amino-4-(trifluoromethyl)aniline] | 41.4 ± 0.79 µM | 33.8 ± 0.64 µM | 40.38 ± 0.01 µM | 41.39 ± 0.05 µM | – | 31.56 ± 0.07 µM | 31 to 41 µM | 71% | did not find any differences | – | – |
| 170 to 173 °C | 1.68 ± 0.08 µM | Nc1cc(C(F)(F)F)ccc1Nc1cc(C(F)(F)F)ccc1-n1nnc2ccccc21 [6b, N-[2-(1H-benzotriazol-1-yl)-5-(trifluoromethyl)phenyl]-2-amino-4-(trifluoromethyl)aniline] | 26.28 ± 0.02 µM | 23.29 ± 0.12 µM | 25.09 ± 0.24 µM | 22.4 ± 0.41 µM | – | 25.98 ± 0.17 µM | 22 to 26 µM | 70% | did not find any differences | significantly increase | significant decrease |
